From publication PMC10799085, “A miniaturized mode-of-action profiling platform enables high throughput characterization of the molecular and cellular dynamics of EZH2 inhibition” (Scientific Reports, 2024)
Where two headings read alike, the source gives them in different places.

Key:
PRC2/EZH2Y641N [1] = target: T1, PRC2/EZH2Y641N (Homo sapiens, UniProt Q15910, Y641N); test: Kinetic probe competition assay (kPCA), TR-FRET; assay type: binding
T1 construct: Synthetic cDNA encoding N-terminal 6His-tagged full length EZH2^Y641N; 6His (N); made in house; host or cells: Sf9 insect cells (baculovirus co-infection)
Text: Biotinylated PRC2 complexes and the fluorescent probe used in TR-FRET assays were generated as described in the supplementary methods section.

PRC2/EZH2 Y111L = target: T2, PRC2/EZH2 Y111L (Homo sapiens, UniProt Q15910, Y111L); test: Scintillation proximity assay (SPA) of H3K27 methylation; assay type: biochemical
T2 construct: N-terminal 6His-tagged full length EZH2^Y641N, EZH2^Y111L; 6His (N); made in house; host or cells: Sf9 insect cells (baculovirus co-infection)
Protocol: (§1) Assay-ready plates containing 50 nl of compound dilutions and DMSO controls were filled with 2.5 µL enzyme solution and pre-incubated for 15 min. […] Experiments were also performed without pre-incubation of enzyme and compounds. In this case, the substrate solution was added before enzyme. The reaction was stopped using 1.6 µg/µl streptavidin beads (Perkin Elmer) and 700 µM of SAM (Perkin Elmer). The plates were sealed with transparent foil.
(§2) For equilibrium binding competition (ePCA) and SPA enzyme inhibition assays, raw data import, quality control, normalization, and curve fitting to a 4-parameter logistic equation for IC50 determination were performed using the Genedata Screener® software (Genedata AG). ePCA Ki values were either calculated using the Cheng-Prussof equation[68] or with the GraphPad Prism model “One-site—Fit Ki”.

PRC2/EZH2+/+ = target: T3, PRC2/EZH2+/+ (Homo sapiens, UniProt Q15910); test: as above; assay type: biochemical
T3 construct: purchased Active Motif
Protocol: as §1, §2

PRC2/EZH2Y111D = target: T4, PRC2/EZH2Y111D (Homo sapiens, UniProt Q15910, Y111D); test: as above; assay type: biochemical
T4 construct: N-terminal 6His-tagged full length EZH2^Y641N, EZH2^Y111L, EZH2^Y111D; 6His (N); made in house; host or cells: Sf9 insect cells (baculovirus co-infection)
Protocol: as §1, §2

PRC2/EZH2Y641N [2] = target: T1, PRC2/EZH2Y641N; test: as above; assay type: biochemical
Protocol: as §1, §2

PRC2/EZH2Y641N+Y661D = target: T5, PRC2/EZH2Y641N+Y661D (Homo sapiens, UniProt Q15910, Y641N/Y661D); test: as above; assay type: biochemical
T5 construct: N-terminal 6His-tagged full length EZH2^Y641N, EZH2^Y111L, EZH2^Y111D, EZH2^Y641N, Y661DEZH2, EZH1; 6His (N); made in house; host or cells: Sf9 insect cells (baculovirus co-infection)
Protocol: as §1, §2

KARPAS-422 cells = test: Cellular proliferation assay (AlamarBlue, 144 h); assay type: cell-based; conditions: Homo sapiens, KARPAS-422, 144 h, read-out: KARPAS (6-day) Anti-proliferation IC50 (M)
Protocol: Cell viability was determined by means of the AlamarBlue® reagent (Thermo Fisher Scientific) following instructions from the manufacturer. […] Anti-proliferative IC50s were calculated by fitting the normalized AlamarBlue® fluorescence values to a 4-parameter logistic equation using the Electronic Notebook (ELN) software from IDBS.

in vitro = in vitro ADME; conditions: human, Caco-2, pH 7.2
[3] = EZH2Y641N (- H3K27me3), sheet ePCA&kPCA RT

SMILES: Cc1cc(C)c(CN2CCc3c(Cl)cc(-c4c(C)noc4C)c(Cl)c3C2=O)c(=O)[nH]1 [Compound 14]
- Kd (PRC2/EZH2Y641N [1]; EZH2Y641N (+ H3K27me3), kinetic, RT sheet): 0.68 nM
- Kinetic Efficiency (PRC2/EZH2Y641N [1]; EZH2Y641N (- H3K27me3)): 2.35E-02
- Calculated RT (PRC2/EZH2Y641N [1]; EZH2Y641N (- H3K27me3), calculated): 0.19 h
- Kd (PRC2/EZH2Y641N [1]; [3]): 2.83 nM
- koff (PRC2/EZH2Y641N [1]; [3]): 0.00136 s⁻¹
- kon (PRC2/EZH2Y641N [1]; [3]): 496000 M⁻¹ s⁻¹
- Ligand Efficiency - 0' enzyme:inhibitor pre-incubation EZH2 Y111L (PRC2/EZH2 Y111L): 1.0
- Ligand Efficiency - 15' enzyme:inhibitor pre-incubation EZH2 Y111L (PRC2/EZH2 Y111L): 1.1
- Ligand Efficiency - 60' enzyme:inhibitor pre-incubation EZH2 Y111L (PRC2/EZH2 Y111L): 1.0
- IC50 (PRC2/EZH2 Y111L; 0' enzyme:inhibitor pre-incubation, read-out: SPA Mean IC50 (M) - 0' enzyme:inhibitor pre-incubation EZH2 Y111L): 1.1e-06 M
- IC50 (PRC2/EZH2 Y111L; 15' enzyme:inhibitor pre-incubation, read-out: SPA Mean IC50 (M) - 15' enzyme:inhibitor pre-incubation EZH2 Y111L): 9.6e-07 M
- IC50 (PRC2/EZH2 Y111L; 60' enzyme:inhibitor pre-incubation, read-out: SPA Mean IC50 (M) - 60' enzyme:inhibitor pre-incubation EZH2 Y111L): 1.1e-06 M
- Ligand Efficiency - 0' enzyme:inhibitor pre-incubation EZH2+/+ (PRC2/EZH2+/+): 1.5
- Ligand Efficiency - 15' enzyme:inhibitor pre-incubation EZH2+/+ (PRC2/EZH2+/+): 1.5
- Ligand Efficiency - 60' enzyme:inhibitor pre-incubation EZH2+/+ (PRC2/EZH2+/+): 1.5
- IC50 (PRC2/EZH2+/+; 0' enzyme:inhibitor pre-incubation, read-out: SPA Mean IC50 (M) - 0' enzyme:inhibitor pre-incubation EZH2+/+): 4.1e-09 M
- IC50 (PRC2/EZH2+/+; 15' enzyme:inhibitor pre-incubation, read-out: SPA Mean IC50 (M) - 15' enzyme:inhibitor pre-incubation EZH2+/+): 1.9e-09 M
- IC50 (PRC2/EZH2+/+; 60' enzyme:inhibitor pre-incubation, read-out: SPA Mean IC50 (M) - 60' enzyme:inhibitor pre-incubation EZH2+/+): 1.8e-09 M
- Ligand Efficiency - 0' enzyme:inhibitor pre-incubation EZH2Y111D (PRC2/EZH2Y111D): 0.9
- Ligand Efficiency - 15' enzyme:inhibitor pre-incubation EZH2Y111D (PRC2/EZH2Y111D): 0.9
- Ligand Efficiency - 60' enzyme:inhibitor pre-incubation EZH2Y111D (PRC2/EZH2Y111D): 0.857
- IC50 (PRC2/EZH2Y111D; 0' enzyme:inhibitor pre-incubation, read-out: SPA Mean IC50 (M) - 0' enzyme:inhibitor pre-incubation EZH2Y111D): 1.3e-05 M
- IC50 (PRC2/EZH2Y111D; 15' enzyme:inhibitor pre-incubation, read-out: SPA Mean IC50 (M) - 15' enzyme:inhibitor pre-incubation EZH2Y111D): 8.5e-06 M
- IC50 (PRC2/EZH2Y111D; 60' enzyme:inhibitor pre-incubation, read-out: SPA Mean IC50 (M) - 60' enzyme:inhibitor pre-incubation EZH2Y111D): 1.3e-05 M
- IC50 (PRC2/EZH2Y641N [2]; 0' enzyme:inhibitor pre-incubation, read-out: SPA Mean IC50 (M) - 0' enzyme:inhibitor pre-incubation hEZH2Y641N): 1.5e-08 M
- IC50 (PRC2/EZH2Y641N [2]; 15' enzyme:inhibitor pre-incubation, read-out: SPA Mean IC50 (M) - 15' enzyme:inhibitor pre-incubation EZH2Y641N): 1.1e-08 M
- IC50 (PRC2/EZH2Y641N [2]; 60' enzyme:inhibitor pre-incubation, read-out: SPA Mean IC50 (M) - 60' enzyme:inhibitor pre-incubation EZH2Y641N): 1.2e-08 M
- Ligand Efficiency - 0' enzyme:inhibitor pre-incubation hEZH2Y641N (PRC2/EZH2Y641N [2]; from SPA pIC50 (1.4*pIC50 / atom count), 0' pre-incubation): 1.4
- Ligand Efficiency - 15' enzyme:inhibitor pre-incubation EZH2Y641N (PRC2/EZH2Y641N [2]; from SPA pIC50 (1.4*pIC50 / atom count), 15' pre-incubation): 1.4
- Ligand Efficiency - 60' enzyme:inhibitor pre-incubation EZH2Y641N (PRC2/EZH2Y641N [2]; from SPA pIC50 (1.4*pIC50 / atom count), 60' pre-incubation): 1.4
- Ligand Efficiency - 0' enzyme:inhibitor pre-incubation EZH2Y641N+Y661D (PRC2/EZH2Y641N+Y661D): 1.0
- Ligand Efficiency - 15' enzyme:inhibitor pre-incubation EZH2Y641N+Y661D (PRC2/EZH2Y641N+Y661D): 1.0
- Ligand Efficiency - 60' enzyme:inhibitor pre-incubation EZH2Y641N+Y661D (PRC2/EZH2Y641N+Y661D): 1.0
- IC50 (PRC2/EZH2Y641N+Y661D; 0' enzyme:inhibitor pre-incubation, read-out: SPA Mean IC50 (M) - 0' enzyme:inhibitor pre-incubation EZH2Y641N+Y661D): 1.4e-06 M
- IC50 (PRC2/EZH2Y641N+Y661D; 15' enzyme:inhibitor pre-incubation, read-out: SPA Mean IC50 (M) - 15' enzyme:inhibitor pre-incubation EZH2Y641N+Y661D): 1.1e-06 M
- IC50 (PRC2/EZH2Y641N+Y661D; 60' enzyme:inhibitor pre-incubation, read-out: SPA Mean IC50 (M) - 60' enzyme:inhibitor pre-incubation EZH2Y641N+Y661D): 1.6e-06 M
- IC50 (KARPAS-422 cells): 6.4e-07 M
- Papp A→B at 2 h, 2 µM (in vitro; 2 µM, 2 h, 37 °C, apical to basolateral, read-out: PK Caco-2 Flux Papp A-B (mean)): 15.4 ×10⁻⁶ cm/s
- Papp B→A at 2 h, 2 µM (in vitro; 2 µM, 2 h, 37 °C, basolateral to apical, read-out: PK Caco-2 Flux Papp B-A (mean)): 17.4 ×10⁻⁶ cm/s
- efflux ratio at 2 h, 2 µM (in vitro; Papp B-A divided by Papp A-B, read-out: PK Caco-2 Flux Efflux Ratio (mean)): 1.13
